Assay results as given in ChEMBL document CHEMBL1201862, “PubChem BioAssay data set” (2004).
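Step 1: Grow cells in 96-well plates. Step 2: Expose to compound for 48 hours at 5 concentrations. Step 3: Interpolate endpoints linearly; if unreached, use highest concentration. Here, GI50 denotes the concentration required for 50% inhibition of growth.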 The source made the active and inactive calls. No stated cut-off is given here; in the data, active = GI50 up to about 1.1 µM and inactive = higher.

Legend:
Assay in all cases: inhibition of tumour cell growth, NCI panel, 48 h
[1] = system: HL-60
[2] = system: SF-539
[3] = system: PC-3
[4] = system: HCC 2998
[5] = system: OVCAR-8
[6] = system: SF-268
[7] = system: OVCAR-5
[8] = system: ACHN
[9] = system: TK-10
[10] = system: HT-29
[11] = system: SF-295
[12] = system: UACC-257
[13] = system: NCI/ADR-RES
[14] = system: A498
[15] = system: NCI-H226
[16] = system: MDA-MB-231
[17] = system: KM12
[18] = system: CAKI-1
[19] = system: BT-549

Row | SMILES | GI50 [1] | GI50 [2] | GI50 [3] | GI50 [4] | GI50 [5] | GI50 [6] | GI50 [7] | GI50 [8] | GI50 [9] | GI50 [10] | GI50 [11] | GI50 [12] | GI50 [13] | GI50 [14] | GI50 [15] | GI50 [16] | GI50 [17] | GI50 [18] | GI50 [19]
1 | O=C1NC(c2cccc(OCc3ccccc3)c2)Nc2ccccc21 (centres undefined) | < 0.0184 µM (active) | 0.201 µM (active) | 0.162 µM (active) | 0.243 µM (active) | 0.315 µM (active) | 0.541 µM (active) | 0.374 µM (active) | 0.442 µM (active) | 0.603 µM (active) | 0.12 µM (active) | 0.114 µM (active) | 1.36 µM (inactive) | 0.117 µM (active) | 0.259 µM (active) | 0.274 µM (active) | 0.251 µM (active) | 17.5 µM (inactive) | 0.628 µM (active) | 
2 | CC(=N/NC(N)=S)/C(C)=N/NC(N)=S | > 100 µM (inactive) | > 100 µM (inactive) | > 100 µM (inactive) | > 100 µM (inactive) | > 100 µM (inactive) | > 100 µM (inactive) | > 100 µM (inactive) | > 100 µM (inactive) | > 100 µM (inactive) | > 100 µM (inactive) |  | > 100 µM (inactive) | > 100 µM (inactive) |  | > 100 µM (inactive) | > 100 µM (inactive) | > 100 µM (inactive) |  | > 100 µM (inactive)
3 | Nc1ccccc1OCc1cc(=O)c(OCc2ccccc2)co1 | 14.9 µM (inactive) | 21.6 µM (inactive) | 34.4 µM (inactive) |  | > 100 µM (inactive) | 15.9 µM (inactive) | 37.4 µM (inactive) | 8.99 µM (inactive) | 18.8 µM (inactive) | 5.05 µM (inactive) | 10.1 µM (inactive) | 14.3 µM (inactive) | 10.2 µM (inactive) |  |  | 19.9 µM (inactive) | 6.47 µM (inactive) | 8.65 µM (inactive) | 33.5 µM (inactive)
4 | O=c1nc2ccc3sc4ccccc4c(=O)c3n2c(=O)[nH]1 | 83.4 µM (inactive) | > 100 µM (inactive) | > 100 µM (inactive) | > 100 µM (inactive) | > 100 µM (inactive) | 98.2 µM (inactive) | > 100 µM (inactive) | > 100 µM (inactive) | 66.7 µM (inactive) | > 100 µM (inactive) | > 100 µM (inactive) | > 100 µM (inactive) | > 100 µM (inactive) | > 100 µM (inactive) | > 100 µM (inactive) | > 100 µM (inactive) | > 100 µM (inactive) | > 100 µM (inactive) | 
5 | COc1ccc2nc3cc([N+](=O)[O-])ccc3c(Nc3ccc(S(=O)(=O)NC(C)=O)cc3)c2c1 | 26.5 µM (inactive) | > 100 µM (inactive) | 45.5 µM (inactive) | 56.6 µM (inactive) |  | > 100 µM (inactive) | > 100 µM (inactive) | 88.1 µM (inactive) | 53.2 µM (inactive) | 65 µM (inactive) | > 100 µM (inactive) | > 100 µM (inactive) |  | > 100 µM (inactive) | > 100 µM (inactive) | 50 µM (inactive) |  | > 100 µM (inactive) | > 100 µM (inactive)
6 | CC(=O)c1[nH]c(NC(C)C)c(C(=S)Nc2ccccc2)c1N | 51.6 µM (inactive) | > 100 µM (inactive) |  | 28.2 µM (inactive) | 28.4 µM (inactive) | 25.3 µM (inactive) | 61.8 µM (inactive) | 33.3 µM (inactive) | 40.8 µM (inactive) | 38.8 µM (inactive) | 38.1 µM (inactive) | 24 µM (inactive) | 68.5 µM (inactive) | 18.9 µM (inactive) | 21.1 µM (inactive) | 22.3 µM (inactive) | 29.6 µM (inactive) | 32.9 µM (inactive) | 30.5 µM (inactive)
7 | CNc1nc(=O)c(C#N)c(-c2ccc(C)cc2)s1 | 53.7 µM (inactive) | > 100 µM (inactive) | > 100 µM (inactive) | > 100 µM (inactive) | > 100 µM (inactive) |  | > 100 µM (inactive) | > 100 µM (inactive) | > 100 µM (inactive) | > 100 µM (inactive) | > 100 µM (inactive) | > 100 µM (inactive) | > 100 µM (inactive) |  | > 100 µM (inactive) | > 100 µM (inactive) | > 100 µM (inactive) | 35.6 µM (inactive) | > 100 µM (inactive)
8 | CN1CCN(c2n[nH]c(=O)c3c2nnn3Cc2ccccc2)CC1 | > 100 µM (inactive) |  | 5.89 µM (inactive) | > 100 µM (inactive) | > 100 µM (inactive) | > 100 µM (inactive) |  | > 100 µM (inactive) | > 100 µM (inactive) | 38 µM (inactive) | > 100 µM (inactive) | > 100 µM (inactive) | > 100 µM (inactive) |  |  | > 100 µM (inactive) | > 100 µM (inactive) | > 100 µM (inactive) | 41.5 µM (inactive)
